SMILES strings stand for the structures.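 Exposure lasted 48 hours, with cells grown in 96-well plates and compounds tested at five concentrations. At the GI50, growth is halved.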 Activity calls are given as the source filed them. No stated cut-off is given here; in the data, active = GI50 up to about 1.1 µM and inactive = higher.

Common to all, as to experiment: growth of human tumour cells (NCI), 48 h
Assay [1] concerns Malme-3M.
In assay [2] the test system is HL-60.
The test system of assay [3] is A549.
Assay [4] concerns SK-OV-3.
Assay [5] deals with OVCAR-8.
Assay [6] relates to CAKI-1.
Assay [7] concerns CCRF-CEM.
For assay [8], the system named is HOP-92.
For assay [9], the system named is ACHN.
Assay [10] relates to SW-620.
Assay [11] concerns HOP-62.
Assay [12] deals with SF-295.
Assay [13] deals with EKVX.
Assay [14] deals with DMS-114.
In assay [15] the test system is NCI-H23.
The subject of assay [16] is NCI-H522.
In assay [17] the test system is MCF7.
Assay [18] deals with MDA-MB-231.
The test system of assay [19] is SR.
The test system of assay [20] is MDA-N.

In the case of `COC/C=C\COC`, the GI50 in [1], in assay [2], in [3], in [4], in assay [5] and in assay [6] was > 100 µM (inactive) throughout. The GI50 in [7], in [8], in assay [9], in [10], in assay [11] and in assay [12] was > 100 µM (inactive) throughout. Further, the GI50 in assay [13] and in assay [14] was > 100 µM (inactive) throughout.

For the molecule `c1ccc2c(c1)C1CCCCCC21N1CCOCC1` (stereo not drawn), the GI50 in assay [2] is 44.6 µM (inactive); in assay [15], > 100 µM (inactive); in assay [3], > 100 µM (inactive); in assay [4], > 100 µM (inactive); in [5], > 100 µM (inactive); in [6], > 100 µM (inactive). Besides, the GI50 in [7] was 97.7 µM (inactive); in assay [9], > 100 µM (inactive); in assay [10] it was > 100 µM (inactive); in assay [11], > 100 µM (inactive); in assay [16], 52.4 µM (inactive); in [12] it was > 100 µM (inactive). Further, the GI50 in assay [14] is 38.8 µM (inactive).

As to `O=C1Nc2ccccc2/C1=c1\[nH]c(=O)/c(=C\c2ccc(OCc3ccccc3)cn2)[nH]c1=O`, the GI50 in [17] was > 100 µM (inactive); in assay [18], 35.1 µM (inactive); in assay [1], 32.4 µM (inactive); in assay [2], 49.4 µM (inactive); in [15], 30.7 µM (inactive); in [3] it was > 100 µM (inactive). Moreover, the GI50 was 32.3 µM (inactive) in assay [4]; 78.7 µM (inactive) in [5]; 0.303 µM (active) in assay [6]; 39.5 µM (inactive) in [7]; 20.1 µM (inactive) in assay [19]; 26.6 µM (inactive) in [8]. The GI50 in [9] was 33.7 µM (inactive); in assay [10], > 100 µM (inactive); in assay [11], 20 µM (inactive); in assay [20], 83.2 µM (inactive); in assay [16], 94.4 µM (inactive); in assay [12], 16.8 µM (inactive). In assay [13], the GI50 was 86.7 µM (inactive).

As to `CN(C)/C=N/S(=O)(=O)c1nn2c(C=O)c(-c3ccc(-c4ccc([N+](=O)[O-])cc4)o3)nc2s1`, the GI50 is 2.13 µM (inactive) in [17]; 2.65 µM (inactive) in [18]; 1.78 µM (inactive) in assay [1]; 0.807 µM (active) in assay [2]; 3.1 µM (inactive) in assay [15]; 3.62 µM (inactive) in [3]. For the same molecule, the GI50 in [4] is 36.1 µM (inactive); in [5] it was 8.04 µM (inactive); in assay [6] it was 0.308 µM (active); in [7] it was 0.426 µM (active); in assay [19] it was 0.883 µM (active); in assay [8] it was 1.84 µM (inactive). Also, the GI50 in assay [9] was 1.97 µM (inactive); in assay [10], 0.933 µM (active); in assay [11] it was 7.43 µM (inactive); in [20] it was 1.1 µM (active); in assay [16] it was 1.38 µM (inactive); in assay [12], 7.08 µM (inactive). In addition, the GI50 in [13] is 5.07 µM (inactive).

Turning to `O=C1C[C@H]2[C@H](c3ccc(Br)cc3)[C@H]3C(=O)c4ccccc4NC(=O)[C@@H]3[C@@]2(O)c2ccccc2N1`, the GI50 is 11.1 µM (inactive) in assay [17]; 14.4 µM (inactive) in assay [18]; 19.7 µM (inactive) in assay [1]; 3.09 µM (inactive) in [2]; 10.4 µM (inactive) in assay [15]; 11.6 µM (inactive) in assay [3]. Further, the GI50 in [4] was 21 µM (inactive); in assay [5], 19 µM (inactive); in assay [6], 5.85 µM (inactive); in assay [7] it was 10.6 µM (inactive); in [19], 7.41 µM (inactive); in assay [8], < 0.01 µM (active). Further, the GI50 was 11.2 µM (inactive) in assay [9]; 19.7 µM (inactive) in assay [10]; 19.6 µM (inactive) in assay [11]; 17.1 µM (inactive) in assay [20]; 12.1 µM (inactive) in [16]; 24 µM (inactive) in assay [12]. For the same molecule, in assay [13], the GI50 was 48.6 µM (inactive).

For the molecule `CC1(C)C(=O)/C(=C/c2ccccc2)C(C)(C)C1(C)C`, the GI50 in assay [17] is 35.2 µM (inactive); in assay [18] it was > 93.8 µM (inactive); in assay [1], > 71.3 µM (inactive); in assay [2] it was 18.9 µM (inactive); in assay [15], 70.6 µM (inactive); in assay [3], 57.5 µM (inactive). Also, the GI50 in assay [4] is > 55.5 µM (inactive); in assay [5], > 100 µM (inactive); in [6] it was 49.1 µM (inactive); in assay [7] it was 28.4 µM (inactive); in [19], 37 µM (inactive); in [8], > 40 µM (inactive). Besides, the GI50 in assay [9] was 53.3 µM (inactive); in assay [10], 60.3 µM (inactive); in [11], 40.9 µM (inactive); in [20], 39.1 µM (inactive); in assay [16] it was 63.2 µM (inactive); in assay [12], > 100 µM (inactive). In addition, the GI50 in assay [13] was > 58.5 µM (inactive).

On to `O=C(NCCCCCN1CCC2(CCCCC2)CC1)C(C1CCCCC1)C1CCCCC1`, for which the GI50 in [17] was 2.13 µM (inactive); in assay [18] it was 5.11 µM (inactive); in assay [1] it was 1.75 µM (inactive); in [2], 1.56 µM (inactive); in assay [15], 3.1 µM (inactive); in [3] it was 5.94 µM (inactive). Besides, the GI50 in [4] is 5.15 µM (inactive); in assay [5] it was 2.72 µM (inactive); in assay [6], 4.1 µM (inactive); in assay [7], 2.99 µM (inactive); in assay [19] it was 1.57 µM (inactive); in [8], 3.73 µM (inactive). The GI50 is 3.67 µM (inactive) in assay [9]; 2.6 µM (inactive) in assay [10]; 1.85 µM (inactive) in assay [11]; 1.84 µM (inactive) in assay [20]; 4.17 µM (inactive) in assay [16]; 1.88 µM (inactive) in [12]. In addition, the GI50 in assay [13] was 3.6 µM (inactive).

For `O=C(NCP(=O)(c1ccccc1)c1ccccc1)OCc1ccccc1`, the GI50 in assay [17] is > 100 µM (inactive); in assay [18] it was 60.1 µM (inactive); in assay [1] it was > 100 µM (inactive); in assay [2], > 100 µM (inactive); in [15] it was > 100 µM (inactive); in [3] it was 66.8 µM (inactive). For the same molecule, the GI50 was 67.3 µM (inactive) in assay [4]; > 100 µM (inactive) in assay [5]; > 100 µM (inactive) in assay [6]; > 100 µM (inactive) in [7]; > 100 µM (inactive) in assay [19]; 40 µM (inactive) in assay [8]. The GI50 in [9] is > 100 µM (inactive); in assay [10], > 100 µM (inactive); in [11] it was 27.4 µM (inactive); in [20] it was > 100 µM (inactive); in [16], 39.4 µM (inactive); in assay [12], 58.6 µM (inactive). Moreover, the GI50 in assay [13] is > 100 µM (inactive).

As to `CC(=O)O[C@@]12[C@@H]3O[C@@]4(O)C[C@]5(C)[C@H]6C[C@@](C(C)C)(O[C@H]5c5ccoc5)O[C@H]1[C@]6(C4)O[C@]2(O)C(C)=CC3(C)C`, the GI50 in [17], in assay [18], in assay [1], in assay [2], in assay [15] and in [3] was > 100 µM (inactive) throughout. Moreover, the GI50 in assay [4], in assay [5], in [6], in assay [7], in [19] and in assay [8] was > 100 µM (inactive) each time. Also, the GI50 is > 100 µM (inactive) in assay [9]; > 100 µM (inactive) in [10]; > 100 µM (inactive) in [11]; > 100 µM (inactive) in assay [20]; 78.5 µM (inactive) in [16]; > 100 µM (inactive) in [12]. Moreover, the GI50 in [13] was > 100 µM (inactive).

As for `CC(=N\N=C\c1ccccn1)/C(C)=N/N=C(C)/C(C)=N/N=C(C)/C(C)=N/N=C/c1ccccn1`, the GI50 in [17], in assay [18], in assay [1], in assay [2], in [15] and in assay [3] was > 100 µM (inactive) in each case. Further, the GI50 in [4] is > 100 µM (inactive); in assay [5] it was > 100 µM (inactive); in assay [6], > 100 µM (inactive); in assay [7], 3.7 µM (inactive); in assay [19] it was > 100 µM (inactive); in assay [8] it was > 100 µM (inactive). Besides, the GI50 in assay [9], in assay [10], in assay [11], in [20], in assay [16] and in assay [12] was > 100 µM (inactive) in each case. Also, the GI50 in assay [13] was > 100 µM (inactive).

As to `COc1ccc(-c2cc(-c3ccc(Nc4ccnc5cc(C(F)(F)F)ccc45)cc3)[nH]c(=O)c2C#N)c2ccccc12`, the GI50 is > 29.5 µM (inactive) in assay [17]; 17.7 µM (inactive) in assay [18]; > 41.2 µM (inactive) in assay [1]; > 100 µM (inactive) in [2]; 39.5 µM (inactive) in assay [15]; > 100 µM (inactive) in assay [3]. For the same molecule, the GI50 in [4] was 10.2 µM (inactive); in assay [5], > 46.3 µM (inactive); in assay [6], > 100 µM (inactive); in [7] it was > 20.9 µM (inactive); in assay [19], 12.6 µM (inactive); in assay [8], > 100 µM (inactive). In addition, the GI50 in [9] was > 32.5 µM (inactive); in assay [10], > 100 µM (inactive); in assay [11], 11.2 µM (inactive); in [20], > 38.4 µM (inactive); in [16], > 100 µM (inactive); in assay [12] it was 25.8 µM (inactive). For the same molecule, the GI50 in assay [13] is > 100 µM (inactive).

The values are drawn from ChEMBL document CHEMBL1201862, “PubChem BioAssay data set” (2004).
